Source: patent publication US9174998B2, “(6S,9aS)-N-benzyl-6-[(4-hydroxyphenyl)methyl]-4,7-dioxo-8-({6-[3-(piperazin-1-yl)azetidin-1-yl]pyridin-2-yl}methyl)-2-(prop-2-en-1-yl)-octahydro-1H-pyrazino[2,1-c][1,2,4]triazine-1-carboxamide compound” (Eisai R&D Management Co., Ltd., priority 2013, dated 2015)
Values after ≈ are worked out from the molar mass of the structure shown. Like-named read-outs stand apart in the source and are kept apart here.

Assays:
Wnt signal = assay: Detection of Wnt signal (TOPglow luciferase reporter, LiCl-stimulated); type: cell-based; settings: Homo sapiens; HEK293 clone carrying pNeo-TOP reporter; LiCl stimulation; luciferase luminescence; read-out: Test Example 1 IC50 (concentration required for inhibiting the Wnt signal activity by 50%)
Procedure: pcDNA3.1(+) (invitrogen) was cleaved with restriction enzymes BglII and NotI, and an adapter BEHKS having a sequence shown below (containing restriction enzyme sites BglII, EcoRI, HindIII, KpnI, SacI and NotI) was inserted thereinto, thereby producing a plasmid pNeo-HKS.
Subsequently, a fragment having a length of about 2700 bp (containing a Wnt-responsive sequence and a luciferase gene), which was prepared by cleaving from a TOPglow plasmid contained in a TOPglow/FOPglow TCF Reporter Kit (upstate Catalog#17-366) with restriction enzymes HindIII and KpnI, was inserted between HindIII and KpnI in pNeo-HKS, thereby producing a plasmid pNeo-TOP. The plasmid pNeo-TOP was introduced into human fetus-derived renal cell strain HEK293, then a compound was selected using G418, and then a cell clone strain was established by a limiting dilution method. The cell clone strain was subjected to a Wnt signal detection test.
The cell clone strain was subcultured in a D-MEM glucose-rich culture medium (Wako Pure Chemical Industries, Ltd.) containing 10% FBS, and cells in a growth phase were used in the test. Cells were collected using trypsin-EDTA, the number of the cells was counted, and then the cells were suspended in a D-MEM glucose-rich culture medium containing 10% FBS so that the number of cells became 2×10^5 cells/mL. The cell suspension was added to a 96-well cell culture plate (Greiner Bio-One Co., Ltd., product number: 655083) in an amount of 0.1 mL/well and then cultured overnight in a 5% CO2 incubator (37° C.). After the culturing, a substance to be tested, which was dissolved in DMSO, was diluted with a D-MEM glucose-rich culture medium containing 10% of FBS and 80 mM of LiCl to produce a sample solution. The sample solution (0.1 mL) was added to each well and then cultured in a 5% CO2 incubator (37° C.) […]. Six hours after the addition of the sample solution, a supernatant was removed from each well, and then 50 μL of Bright-Glo™ Luciferase substrate (Promega, product number: E2620) was added thereto. The plate was put on a plate mixer for several seconds, and then the emission of light from each well was measured using a EnVision™ Multilabel plate reader (PerkinElmer Co., Ltd.). The Wnt signal activation rate (%) of each well was determined, and a concentration (IC50) which is required for inhibiting the Wnt signal activity of a substance of interest by 50% was calculated, wherein the luminosity of a well to which a sample solution was not added and LiCl was added was defined as a 100% Wnt signal activity and the luminosity of a well to which either of a sample solution or LiCl was not added was defined as a 0% Wnt signal activity.

[1] = Evaluation of metabolic stability; type: in vitro ADME, human; settings: 0.2 mg/mL HLM, 0.1 μM test substance, 15 minutes at 37° C., with vs without NADPH production
Procedure: A test substance was dissolved in DMSO so that the concentration of the resultant solution became 20 mM, and the solution was diluted with DMSO so that the concentration of the resultant solution became 1 mM. The metabolic stability of the test substance was evaluated using a human liver microsome (HLM) in which human liver was pooled. An assay buffer solution contained 0.2 mg/mL of HLM, a 0.1 M of phosphate potassium buffer solution (pH 7.4), 0.1 mM of EDTA, 0.33 mM of NADP+, 8 mM of glucose-6-phosphate, 0.1 U/mL of glucose-6-phosphate dehydrogenase, 6 mM of MgCl2, 0.1 μM of a test substance (final concentration in DMSO: 0.01%) in 0.15 mL of the final incubation volume. Fifteen minutes after the initiation of the reaction at 37° C., 0.15 mL of a acetonitrile/methanol mixed solution (7:3, by volume) was added to the solution to terminate the reaction. After centrifugation, the resultant supernatant was analyzed by LC-MSMS, peak areas were compared under the presence or absence of the production of NADPH, and the residual ratio of the test substance was calculated.

[2] = Evaluation of solubility (DMSO stock into PBS, HPLC-UV); type: physicochemical; settings: Dulbecco's phosphate-buffered saline pH 7, room temperature, about 15 minutes shaking, values greater than 200 μM regarded as 200 μM, read-out: Test Example 3 solubility
Procedure: To 0.25 mL of a test solution a mentioned below was added 2.5 μL of a DMSO solution having a compound concentration of 20 mM. The resultant solution was shaken at room temperature for about 15 minutes (the conditions for the shaking are mentioned below). Subsequently, a supernatant was collected by a suction filtration under a reduced pressure. A DMSO solution having a compound concentration of 200 μM was used as a standard solution, and the concentration of a compound in a filtrate which was quantified by a HPLC-UV method was employed as a solubility (rounded off to the whole number). In this evaluation, since a value 200 μM became the upper limit operationally, all of quantification values greater than 200 μM were regarded as 200 μM.
Test solution: GIBCO (registered trade name) Dulbecco's phosphate-buffered saline (pH 7, Life Technologies Corporation)
Conditions for shaking: a microplate shaker N-704 (Nissinrika Corporation), speed 6

[3] = PAMPA test (parallel artificial membrane permeability assay); type: in vitro ADME; settings: phosphate buffer pH 6.8, about 200 μM, about 5 hours, room temperature, read-out: Test Example 4 membrane permeation coefficient Pe
Procedure: A test solution (see below) was stirred while shaking at room temperature for about 5 hours using a 96-well PAMPA plate (BD Biosciences) in which a lipid had been precoated onto a polyvinylidene fluoride (PVDF) film to evaluate the membrane permeation coefficient Pe (cm/s) of each compound dissolved in the test solution (concentration: about 200 μM) upon the transport of the compound from a donor side to an acceptor side through a lipid membrane. The Pe value was calculated in accordance with equations 1 and 2, and the concentration of the compound on the donor side and the acceptor side was measured by a HPLC-UV method. In 0.3 mL of the test solution on the donor side is contained about 1% (v/v) of DMSO, since 3 μL of a DMSO solution containing the compound at a concentration of 20 mM was added to the test solution.
Test solution: a phosphate buffer solution having a pH value of 6.8 (90 mM of phosphate, 48 mM of NaCl, 5.4 mM of KCl)
Conditions for stirring: a multishaker MS-300 (AS ONE Corporation), 350 rpm
[formula] CD(t): compound concentration in donor well at time t CA(t): compound concentration in acceptor well at time t VD: donor well volume (0.3 mL) VA: acceptor well volume (0.2 mL) A: filter area (0.3 cm^2)

[4] = aqueous buffer, kinetic from dmso stock

| SMILES | IC50 (Wnt signal) [nM] | Test Example 2 residual ratio of the test substance [1] [%] | solubility [2] [µM] | Papp [3] [×10⁻⁶ cm/s] | solubility [2, 4] [µM] |
| --- | --- | --- | --- | --- | --- |
| C=CCN1CC(=O)N2[C@@H](Cc3ccc(O)cc3F)C(=O)N(Cc3ccc(F)c(N4CC(N5CCC(N(C)C)CC5)C4)n3)C[C@@H]2N1C(=O)NCc1ccccc1 [Reference Example 3, (6S,9aS)-N-Benzyl-8-((6-(3-(4-(dimethylamino)piperidin-1-yl)azetidin-1-yl)-5-fluoropyridin-2-yl)methyl)-6-((2-fluoro-4-hydroxyphenyl)methyl)-4,7-dioxo-2-(prop-2-en-1-yl)-octahydro-1H-pyrazino[2,1-c][1,2,4]triazine-1-carboxamide] | 110 | 50 | – | 0.55 | 199 (≈ 151 µg/mL) |
| C=CCN1CC(=O)N2[C@@H](Cc3ccc(O)cc3)C(=O)N(Cc3cccc(N4CC(N5CCN(C(C)C)CC5)C4)n3)C[C@@H]2N1C(=O)NCc1ccccc1 [Example 9, (6S,9aS)-N-Benzyl-6-((4-hydroxyphenyl)methyl)-4,7-dioxo-2-(prop-2-en-1-yl)-8-((6-(3-(4-(propan-2-yl)piperazin-1-yl)azetidin-1-yl)pyridin-2-yl)methyl)-octahydro-1H-pyrazino[2,1-c][1,2,4]triazine-1-carboxamide] | 150 | 34 | – | 1.38 | 194 (≈ 140 µg/mL) |
| C=CCN1CC(=O)N2[C@@H](Cc3ccc(O)cc3)C(=O)N(Cc3cccnc3N3CCC(N4CCCC4)CC3)C[C@@H]2N1C(=O)NCc1ccccc1 [Comparative Example 1, (6S,9aS)-N-Benzyl-6-(4-hydroxybenzyl)-4,7-dioxo-8-((2-(4-(pyrrolidin-1-yl)piperidin-1-yl)pyridin-3-yl)methyl)-2-(prop-2-en-1-yl)-octahydro-1H-pyrazino[2,1-c][1,2,4]triazine-1-carboxamide, reference compound] | 23200 | 52.9 | – | 1.34 | 97 (≈ 67.2 µg/mL) |
| C[C@H]1C2N(C(=O)CN(C)N2C(=O)NCc2ccccc2)[C@@H](Cc2ccc(O)cc2)C(=O)N1Cc1cccc2cccnc12 (stereo partly drawn) [Comparative Example 2, (6S,9S)-N-Benzyl-6-(4-hydroxybenzyl)-2,9-dimethyl-4,7-dioxo-8-(quinolin-8-ylmethyl)octahydro-1H-pyrazino[2,1-c][1,2,4]triazine-1-carboxamide, reference compound] | 330 | 0.6 | – | 0.85 | 122 (≈ 70.6 µg/mL) |
| C=CCN1CC(=O)N2[C@@H](Cc3ccc(O)cc3)C(=O)N(Cc3ccc(F)c(N4CC(N5CCN(C)CC5)C4)n3)C[C@@H]2N1C(=O)NCc1ccccc1 [Example 8, (6S,9aS)-N-Benzyl-8-((5-fluoro-6-(3-(4-methylpiperazin-1-yl)azetidin-1-yl)pyridin-2-yl)methyl)-6-((4-hydroxyphenyl)methyl)-4,7-dioxo-2-(prop-2-en-1-yl)-octahydro-1H-pyrazino[2,1-c][1,2,4]triazine-1-carboxamide] | 200 | 40 | – | 2.3 | 195 (≈ 139 µg/mL) |

Further lines, results first:

| IC50 (Wnt signal) [nM] | Test Example 2 residual ratio of the test substance [1] [%] | solubility [2] [µM] | Papp [3] [×10⁻⁶ cm/s] | solubility [2, 4] [µM] | SMILES |
| --- | --- | --- | --- | --- | --- |
| 320 | 37 | 200 (≈ 144 µg/mL) | 1.13 | – | C=CCN1CC(=O)N2[C@@H](Cc3ccc(O)cc3)C(=O)N(Cc3cccc(N4CC(N5CCN(CC)[C@@H](C)C5)C4)n3)C[C@@H]2N1C(=O)NCc1ccccc1 [Example 18, (6S,9aS)-N-Benzyl-8-((6-(3-((3S)-4-ethyl-3-methylpiperazin-1-yl)azetidin-1-yl)pyridin-2-yl)methyl)-6-((4-hydroxyphenyl)methyl)-4,7-dioxo-2-(prop-2-en-1-yl)-octahydro-1H-pyrazino[2,1-c][1,2,4]triazine-1-carboxamide] |
| 180 | 43 | 200 (≈ 152 µg/mL) | 0.57 | – | C=CCN1CC(=O)N2[C@@H](Cc3c(F)cc(O)cc3F)C(=O)N(Cc3cccc(N4CC(N5CCN(CC)[C@@H](C)C5)C4)n3)C[C@@H]2N1C(=O)NCc1ccccc1 [Example 22, (6S,9aS)-N-Benzyl-6-((2,6-difluoro-4-hydroxyphenyl)methyl)-8-((6-(3-((3S)-4-ethyl-3-methylpiperazin-1-yl)azetidin-1-yl)pyridin-2-yl)methyl)-4,7-dioxo-2-(prop-2-en-1-yl)-octahydro-1H-pyrazino[2,1-c][1,2,4]triazine-1-carboxamide] |
| 290 | 58 | 200 (≈ 142 µg/mL) | 1.32 | – | C=CCN1CC(=O)N2[C@@H](Cc3ccc(O)cc3)C(=O)N(Cc3cccc(N4CC(N5CCN(CC)CC5)C4)n3)C[C@@H]2N1C(=O)NCc1ccccc1 [Example 2, (6S,9aS)-N-Benzyl-8-((6-(3-(4-ethylpiperazin-1-yl)azetidin-1-yl)pyridin-2-yl)methyl)-6-((4-hydroxyphenyl)methyl)-4,7-dioxo-2-(prop-2-en-1-yl)-octahydro-1H-pyrazino[2,1-c][1,2,4]triazine-1-carboxamide] |
| 63 | 23 | 200 (≈ 148 µg/mL) | 1.47 | – | C=CCN1CC(=O)N2[C@@H](Cc3ccc(O)cc3F)C(=O)N(Cc3cccc(N4CC(N5CCN(CC)[C@H](C)C5)C4)n3)C[C@@H]2N1C(=O)NCc1ccccc1 [Example 21, (6S,9aS)-N-Benzyl-8-((6-(3-((3R)-4-ethyl-3-methylpiperazin-1-yl)azetidin-1-yl)pyridin-2-yl)methyl)-6-((2-fluoro-4-hydroxyphenyl)methyl)-4,7-dioxo-2-(prop-2-en-1-yl)-octahydro-1H-pyrazino[2,1-c][1,2,4]triazine-1-carboxamide] |
